Results published in US20250179024A1, “AMYLOID AND ASSOCIATED PATHOLOGY MODULATORS AND METHODS THEREOF” (Jawaharlal Nehru Centre for Advanced Scientific Research, priority 2022, published 2025).

What was measured:
SH-SY5Y cells = assay: In cellulo antioxidant assay, rescue from H2O2 induced cell death (MTT); format: cell-based; details: H2O2 200 μM, NMIs 20 μM, 18 h; H2O2 treated cells ~72%
Description: To assess in cellulo antioxidant activity of NMIs, rescue of neuronal cells from H2O2 induced cell death was assessed by MTT assay. The cells were seeded onto 96 well plate at seeding density of 25,000 cells per well. After 24 h cells were treated with H2O2 (200 μM) alone and with NMIs (20 μM) for 18 h. H2O2 treatment result in neuronal cell death and potent antioxidant molecule rescue cells. The cell viability was assessed by MTT assay and percentage cell viability was calculated. ABTS (λmax at 734 nm) radical scavenging assay assessed the ability of NMIs to quench nitrogen radicals (RNS). […] These in vitro experiments have established M1 and M3 as effective antioxidants and further their ability to scavenge ROS in cellulo was assessed. Treatment of cells with H2O2 was known to generate ROS and cause DNA damage, protein oxidation, lipid peroxidation and mitochondrial dysfunction, which led to cell death. The neuronal cells were treated with H2O2 (200 μM) alone and with NMIs (20 μM) for 18 h and cell viability by MTT assay. […] The production of excess ROS by Aβ results in oxidative stress and elicits stress response.

[1] = Metal chelation by UV-visible absorbance and fluorescence spectra; format: physicochemical; details: for interaction with Cu (II) and Zn (II), change in absorbance spectra / chelation among different physiologically relevant metals, absorbance: NMIs 20 μM; for chelation among different physiologically relevant metals, absorbance: metals 40 μM
Text: The compounds of the present disclosure (NMIs) were designed to chelate with metals (Cu and Zn) and alleviate the metal-dependent Aβ toxicity. […] The change in absorbance and fluorescence spectra of NMIs were monitored to understand the interaction with Cu(II) and Zn(II). […] The fluorescence intensity of M3 at 525 nm decreased with the increasing concentration of Cu(II) or Zn(II) (FIGS. 6(A & B)).

Aβ42 = target: T1, Aβ42 (Homo sapiens, UniProt P05067); assay: Native PAGE and western blot of Aβ aggregated species; format: biochemical; details: NMIs 20 μM; for size distribution of Aβ aggregated species, aggregation inhibition: Aβ 10 μM, FIGS. 1B and 2B; for LMW and HMW Aβ aggregates, dissolution samples: Aβ aggregates 10 μM, FIG. 4B
T1 construct: is a 42 amino acid proteolytic product from the amyloid precursor protein; purchased Invitrogen
Description: The samples were prepared by incubating Aβ42 with specific concentration of NMI compounds of present disclosure and metal ions for 48 h and then subjected to 6% native polyacrylamide gel electrophoresis (Native-PAGE) in tris-glycine buffer. The lower molecular weight aggregates permeabilized through the gel and resolved in the gel. Higher molecular aggregates stuck in the upper part of wells and potentially carried in gel. Then the protein was transferred to PVDF membrane for 4 h at cold condition maintained using ice cold transfer buffer and immersing the transfer apparatus in ice. Then the blots were continued similar to dot blots. […] It has been observed that the oligomers are a highly toxic species compared to Aβ fibrillar aggregates. The ability of NMIs (M3) to inhibit the formation of Aβ oligomers was assessed by dot blot assay. Aβ peptide (10 μM) was incubated with NMIs at 4° C. for 24 h followed by probing with A11 oligomer-specific antibody. […] Native PAGE and western blot analysis was carried out to understand the size distribution of Aβ aggregated species. […] In order to analyse the higher order aggregates not permeable in the gel matrix and the morphological characteristics, Aβ samples were subjected to atomic force microscopy (AFM) imaging.

Aβ fibrils = target: T2, Aβ fibrils (Homo sapiens, UniProt P05067); assay: Dot blot assay of Aβ fibrillar aggregation inhibition (OC antibody); format: biochemical; details: Aβ 10 μM; for inhibition of the formation of Aβ fibrils: NMIs 20 μM, PBS pH 7.4, 37° C., 48 h
T2 construct: is a 42 amino acid proteolytic product from the amyloid precursor protein; purchased Invitrogen
Description: Aggregation modulation by toxic Aβ aggregates were assessed and were quantified by dot blot assay. Aβ peptide (10 μM) was dissolved in phosphate buffered saline (PBS, 10 mM, pH 7.4), incubated alone and with NMIs (20 μM) at 37° C. for 48 h. For concentration dependent inhibition, 10 μM Aβ peptide was incubated with 1, 2, 5, 10 and 20 μM of NMIs and incubated. Samples for oligomer inhibition studies were prepared by incubating Aβ alone and with NMIs at 4° C. for 24 and subjected to dot blot analysis. For dissolution studies, Aβ peptide alone was incubated in PBS for 48 h to prepare fibrils and then incubated with NMIs further for 48 h. For dot blot experiment, 5 μL of sample was blotted on activated PVDF (polyvinylidene fluoride) membrane in triplicates and air dried. The membrane was blocked with skimmed milk powder for 1 h at room temperature. The blot paper was washed with tris-buffered saline with 0.01% Tween 20 (TBST) three times for 5 min. Blot paper was treated with fibril specific OC primary antibody (Rabbit, 1:1000 dilution) overnight at 4° C. For oligomers blot A11 anti-oligomer antibody (Rabbit 1:1000) was used. Blot was washed thrice with TBST and treated with HRP-conjugated antirabbit secondary antibody (1:5000 dilutions) for 1 h at room temperature. The bolt was washed thrice for 5 min with TBST and developed with ECL reagent (Biorad) and imaged with ChemiDoc BioRad gel documentation system in autoexposure mode. Blots were analyzed and quantified by ImageJ software. The ability of the NMIs, the compounds of the present disclosure M1-M4 to inhibit Aβ aggregation and dissolve the preformed fibrillar aggregates was evaluated by dot blot assay as explained in Example 2 above. Aβ (10 μM) was incubated alone and with NMIs (20 μM) in phosphate buffer saline (PBS, 10 mM and pH 7.4) at 37° C. for 48 h to form Aβ fibrillar aggregates. The samples were blotted and probed with fibril-selective OC antibody (rabbit anti-human amyloid fibrils). […] M3 was further assessed for inhibitory effect at lower concentrations. […] It has been observed that the oligomers are a highly toxic species compared to Aβ fibrillar aggregates. The ability of NMIs (M3) to inhibit the formation of Aβ oligomers was assessed by dot blot assay. Aβ peptide (10 μM) was incubated with NMIs at 4° C. for 24 h followed by probing with A11 oligomer-specific antibody. […] Native PAGE and western blot analysis was carried out to understand the size distribution of Aβ aggregated species. […] In order to analyse the higher order aggregates not permeable in the gel matrix and the morphological characteristics, Aβ samples were subjected to atomic force microscopy (AFM) imaging.

T2 sequence (P05067 672-713 limits assumed): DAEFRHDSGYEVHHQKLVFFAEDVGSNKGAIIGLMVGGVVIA
T1 sequence (P05067 672-713 limits assumed): as above

Structure (SMILES) | cell viability (SH-SY5Y cells) [%] | interaction with Cu (II) and Zn (II), change in absorbance spectra ([1]; Cu or Zn 2.5 to 40 μM) | chelation among different physiologically relevant metals, absorbance [1] | size distribution of Aβ aggregated species, aggregation inhibition (Aβ42) | LMW and HMW Aβ aggregates, dissolution samples (Aβ42) | inhibition of the formation of Aβ fibrils (Aβ fibrils) [%] | fluorescence intensity at 525 nm with increasing concentration of Cu(II) or Zn(II) ([1]; 20 μM, Cu or Zn 2.5 to 40 μM) | IC50 (Aβ fibrils) [nM] | inhibition of Aβ aggregation (Aβ fibrils; 0.1 molar ratio) [%] | inhibition of Aβ aggregation (Aβ fibrils; 0.2 molar ratio) [%] | inhibition of Aβ aggregation (Aβ fibrils; 0.5 molar ratio) [%] | inhibition of Aβ aggregation (Aβ fibrils; 1 molar ratio) [%] | inhibition of Aβ aggregation (Aβ fibrils; 2 molar ratio) [%]
CN(C)c1ccc2c3c(cccc13)C(=O)N(CCc1ccc(O)c(O)c1)C2=O [M1, 2-(3,4-dihydroxyphenethyl)-6-(dimethylamino)-1H-benzo[de]isoquinoline-1,3(2H)-dione] | 89 | effectively interacted with Cu (II) and Zn (II) | selectively chelated with Cu(II) and Zn (II) | reduction of different Aβ species | effectively inhibited the formation of LMW and HMW Aβ aggregates | ~95 |  |  |  |  |  |  | 
O=C1c2cccc3c(N(Cc4ccccn4)Cc4ccccn4)ccc(c23)C(=O)N1CCc1ccc(O)c(O)c1 [M3, 6-(bis(pyridin-2-ylmethyl)amino)-2-(3,4-dihydroxyphenethyl)-1H-benzo[de]isoquinoline-1,3(2H)-dione] | 91 | effectively interacted with Cu (II) and Zn (II) | selectively chelated with Cu(II) and Zn (II) | reduction of different Aβ species | effectively inhibited the formation of LMW and HMW Aβ aggregates | 94 | decreased | 1000 | 37 | 42 | 55 | 74 | 90
